Data as given in patent US12448347B2, “Polymorphic forms of (R)-oxybutynin hydrochloride” (APNIMED, INC. (DELAWARE), priority 2020, dated 2025).

Key:
Assay type in all cases: physicochemical
[1] = Hygroscopicity of the isolated solids (observation); conditions: HCl
[2] = Solid form stability / interconversion on drying, storage or slurrying (XRPD); conditions: for XRPD pattern after prolonged slurrying: slurry in MIBK and in heptanes separately, RT (2 weeks)
[3] = DVS analysis (moisture sorption/desorption)
[4] = Humidity stress in open containers with XRPD analysis; conditions: for XRPD form after humidity exposure / appearance of solids after humidity exposure: 24 hours, open container
Experimental: Samples of R-oxybutynin HCl Form B were exposed to 75% RH and 85% RH for 24 hours, in open containers.

Row | hygroscopicity of isolated solids [1] | crystalline form obtained after drying ([2]; dried under vacuum at RT for 24 hours) | crystalline form obtained upon storage ([2]; storage at ambient conditions) | crystalline form obtained after high temperature drying (XRPD) ([2]; vacuum drying at 50° C. (24 h, 2 days in Table 2), HCl) | hygroscopicity by DVS ([3]; DVS analysis) | physical form of post-DVS sample (XRPD) ([3]; XRPD after DVS) | weight gain (DVS) ([3]; between 75% and 95% RH) [%] | weight change upon desorption (DVS) ([3]; desorption from 95% to 5% RH) | weight gain (DVS) ([3]; from 5% RH to 95% RH) [%] | XRPD form after humidity exposure ([4]; 75% RH) | appearance of solids after humidity exposure ([4]; 75% RH) | XRPD form after humidity exposure ([4]; 85% RH) | appearance of solids after humidity exposure ([4]; 85% RH) | outcome of humidity stress ([4]; 93% RH) | Compound | XRPD pattern after prolonged slurrying [2]
1 | hygroscopic | Form B | Form B | Form C was isolated | – | – | – | – | – | – | – | – | – | – | CCN(CC)CC#CCOC(=O)[C@](O)(c1ccccc1)C1CCCCC1.Cl [Form A, (R)-oxybutynin HCl] | Form C diffraction patterns were observed
2 | – | – | – | – | hygroscopic | Form B remained | 23 | All the weight gained was lost | 26.6 | consistent with Form B | remained free flowing | composed of Form B | not free flowing | deliquesced | CCN(CC)CC#CCOC(=O)[C@](O)(c1ccccc1)C1CCCCC1.Cl [Form B, (R)-oxybutynin HCl] | Form C diffraction patterns were observed
3 | non-hygroscopic | – | – | – | – | – | – | – | – | – | – | – | – | – | CCN(CC)CC#CCOC(=O)[C@](O)(c1ccccc1)C1CCCCC1.Cl [Form C, (R)-oxybutynin HCl] | –
